Assay results reported in patent US20230089966A1, “METHOD FOR DIFFERENTIATION OF BRAIN MURAL CELLS FROM HUMAN PLURIPOTENT STEM CELLS” (WISCONSIN ALUMNI RESEARCH FOUNDATION, priority 2021, published 2023).

Experiments:
[1] = target: T1, Notch intracellular domain-RBPJ assembly (Homo sapiens, UniProt Q06330); experiment: Loss-of-function experiment, RT-qPCR of mural cell gene expression; type: cell-based; conditions: 10 μM CB-103 in culture medium; 6 days after transduction of neural crest cells
T1 construct: corresponding to amino acids 1,662-2,321 of NP_00426.2; initiator Met (start codon supplied by the forward primer) (N); expressed in transfected cells; host or cells: H9 hPSC-derived p75+ neural crest cells transduced with N3ICD-GFP (pWPI-N3ICD) lentivirus; RBPJ is endogenous
Experimental: When neural crest cells reached ˜40-50% confluence (˜2-3 days post-MACS), lentiviral transduction was performed by replacing medium in each well E6-CSFD medium containing 30-50 μL N3ICD-GFP, N1ICD-GFP, or TBX2-GFP lentivirus per mL, or 5-8 μL GFP (control) lentivirus per mL, which achieved transduction efficiencies of 50-80%. E6-CSFD medium was replaced every other day for 6 days. In some experiments, culture medium was supplemented with 10 μM CB-103 (MedChemExpress, Monmouth Junction, N.J.). The resulting cultures were either used directly for analysis or sorted to isolate GFP^+ and GFP^− cells as described below.
RNA extraction was performed using the RNeasy Plus Micro Kit (Qiagen). Cells were lysed with 350 μL Buffer RLT supplemented with 1% β-mercaptoethanol (Sigma) and transferred to gDNA Eliminator spin columns. 350 μL 70% ethanol was added to each lysate, and lysates were loaded onto RNeasy MinElute spin columns. Columns were washed with Buffer RW1, Buffer RPE, and 80% ethanol according to manufacturer protocols. RNA was eluted with RNase-free water and concentration quantified using a NanoDrop 2000 spectrophotometer (Thermo Scientific, Waltham, Mass.). 250-1000 ng of RNA was reverse-transcribed for 1 h at 37° C. using the OmniScript RT Kit (Qiagen) and 1 μM Oligo(dT)12-18 primers (Life Technologies). […]

[2] = system: N3ICD-GFP-transduced culture; experiment: Calcium imaging after KCl application; type: cell-based, human; conditions: 40 mM KCl, 6 days after transduction
Experimental: Calcium imaging was performed 6 days after transduction of a neural crest cultures with N3ICD-GFP lentivirus as described above. FLIPR Calcium 6 dye (Molecular Devices, San Jose, Calif.) was prepared according to manufacturer instructions. 500 μL of prepared dye was added to the existing 500 μL of culture medium and cells incubated at 37° C., 5% CO2 for 2 h. The plate was transferred to a microscope environmental chamber at 37° C., 5% CO2 and equilibrated for 30 min. Images were acquired every 5 s for 300 s using an Eclipse Ti2-E microscope with a 4× objective. At t=50 s, a 1:114 dilution of saturated KCl solution (4.56 M, for a final concentration of 40 mM) was added to the well.

[3] = system: GFP+ cells isolated via FACS from a N3ICD-GFP-transduced culture; experiment: Contraction assay (change in cell area); type: cell-based, human; conditions: 40 mM KCl, 15 min after addition; GFP+ cells 2 days after FACS; water control 0% change
Experimental: The contraction assay was performed 2 days after isolation of GFP^+ cells via FACS from a N3ICD-GFP-transduced culture as described above. The plate was transferred to a microscope environmental chamber at 37° C., 5% CO2 and equilibrated for 30 min. At t=0 min, a 1:114 dilution of saturated potassium chloride solution, or an equivalent volume of water, was added to the culture medium and the plate briefly rocked to mix. Phase contrast images were acquired immediately upon addition of potassium chloride or water and 15 min thereafter using an Eclipse Ti2-E microscope with a 20× objective. The Freehand Selection Tool in ImageJ was used to trace the outlines of 16 cells per 20× field at times 0 and 15 min, and the Measure function used to obtain A0 and A15, the cell areas at times 0 and 15 min, respectively. For each cell, the percent change in area was computed as (A15−A0)/A0×100%.

[4] = target: T2, KATP channels (Homo sapiens, UniProt O60706); experiment: KATP channel function by calcium imaging after KCl-induced depolarization; type: cell-based; conditions: 20 μM pinacidil pretreatment, 40 mM KCl, 30 s after addition
T2 construct: endogenous in cells; host or cells: hPSC-derived neural crest cultures 6 days after transduction with GFP or N3ICD-GFP lentivirus
Experimental: To assess function of KATP channels, cells 6 days after transduction with GFP or N3ICD-GFP lentiviruses were labeled with FLIPR Calcium 6 dye as above, and 20 μM pinacidil (Santa Cruz Biotechnology, Dallas, Tex.) or DMSO added 1.5 h after addition of dye. After an additional 30 min incubation, the plate was transferred to the microscope environmental chamber. Images were acquired every 5 s for 60 s and 40 mM KCl added at t=20 s. Mean fluorescence intensity was quantified as above.

T2 sequence (O60706 whole entry): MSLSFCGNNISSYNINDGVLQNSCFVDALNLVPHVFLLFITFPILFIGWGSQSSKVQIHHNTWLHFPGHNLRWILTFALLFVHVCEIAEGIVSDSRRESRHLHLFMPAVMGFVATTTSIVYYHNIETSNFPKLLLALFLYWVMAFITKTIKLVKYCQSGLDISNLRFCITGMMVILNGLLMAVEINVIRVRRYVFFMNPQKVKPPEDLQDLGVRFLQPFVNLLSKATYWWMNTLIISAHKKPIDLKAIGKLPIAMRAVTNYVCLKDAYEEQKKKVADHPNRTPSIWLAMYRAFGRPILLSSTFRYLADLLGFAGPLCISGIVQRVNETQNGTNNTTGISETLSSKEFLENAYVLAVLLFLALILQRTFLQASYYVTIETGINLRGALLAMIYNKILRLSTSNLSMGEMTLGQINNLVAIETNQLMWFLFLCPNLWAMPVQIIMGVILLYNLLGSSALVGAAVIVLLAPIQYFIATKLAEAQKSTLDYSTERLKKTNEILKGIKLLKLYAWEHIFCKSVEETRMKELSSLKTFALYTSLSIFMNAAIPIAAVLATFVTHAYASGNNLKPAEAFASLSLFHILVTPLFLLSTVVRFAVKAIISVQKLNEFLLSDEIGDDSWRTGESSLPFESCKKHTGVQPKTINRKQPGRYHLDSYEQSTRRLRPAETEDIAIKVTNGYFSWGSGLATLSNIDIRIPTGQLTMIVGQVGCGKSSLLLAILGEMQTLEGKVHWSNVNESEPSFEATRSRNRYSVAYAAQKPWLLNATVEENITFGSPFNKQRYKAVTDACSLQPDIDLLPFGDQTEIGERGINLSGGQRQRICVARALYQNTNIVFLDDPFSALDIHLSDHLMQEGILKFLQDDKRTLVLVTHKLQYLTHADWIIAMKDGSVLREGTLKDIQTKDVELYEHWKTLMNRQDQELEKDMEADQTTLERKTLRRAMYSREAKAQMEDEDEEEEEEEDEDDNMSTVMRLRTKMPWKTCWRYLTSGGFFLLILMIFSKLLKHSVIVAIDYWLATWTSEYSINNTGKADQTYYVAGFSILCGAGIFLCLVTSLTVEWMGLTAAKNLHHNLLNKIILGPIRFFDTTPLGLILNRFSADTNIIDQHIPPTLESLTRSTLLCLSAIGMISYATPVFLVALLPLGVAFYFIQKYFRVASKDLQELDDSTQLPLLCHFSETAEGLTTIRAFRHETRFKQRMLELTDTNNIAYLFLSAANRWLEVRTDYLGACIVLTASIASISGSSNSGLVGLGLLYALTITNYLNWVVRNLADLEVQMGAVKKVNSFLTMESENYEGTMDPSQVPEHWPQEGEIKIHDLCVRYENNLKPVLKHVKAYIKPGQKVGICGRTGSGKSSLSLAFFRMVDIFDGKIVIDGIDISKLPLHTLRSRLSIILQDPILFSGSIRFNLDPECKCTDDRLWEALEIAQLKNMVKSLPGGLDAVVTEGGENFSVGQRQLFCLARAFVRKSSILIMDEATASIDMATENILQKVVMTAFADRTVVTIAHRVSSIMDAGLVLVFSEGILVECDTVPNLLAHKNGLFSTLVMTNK
T2 sequence (Q15842 whole entry partner): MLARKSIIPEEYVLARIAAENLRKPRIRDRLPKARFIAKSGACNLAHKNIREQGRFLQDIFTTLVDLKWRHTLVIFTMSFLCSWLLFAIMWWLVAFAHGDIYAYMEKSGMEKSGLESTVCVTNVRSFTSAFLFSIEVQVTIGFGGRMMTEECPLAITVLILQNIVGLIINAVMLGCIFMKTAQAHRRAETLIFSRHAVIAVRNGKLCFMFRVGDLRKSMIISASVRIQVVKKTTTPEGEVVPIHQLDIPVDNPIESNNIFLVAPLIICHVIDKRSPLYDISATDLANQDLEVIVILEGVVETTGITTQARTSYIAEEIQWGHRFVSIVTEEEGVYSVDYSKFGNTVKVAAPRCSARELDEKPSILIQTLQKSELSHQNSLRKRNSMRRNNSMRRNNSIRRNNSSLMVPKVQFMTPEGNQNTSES
T1 sequence (Q06330 whole entry, the tested form may be a part): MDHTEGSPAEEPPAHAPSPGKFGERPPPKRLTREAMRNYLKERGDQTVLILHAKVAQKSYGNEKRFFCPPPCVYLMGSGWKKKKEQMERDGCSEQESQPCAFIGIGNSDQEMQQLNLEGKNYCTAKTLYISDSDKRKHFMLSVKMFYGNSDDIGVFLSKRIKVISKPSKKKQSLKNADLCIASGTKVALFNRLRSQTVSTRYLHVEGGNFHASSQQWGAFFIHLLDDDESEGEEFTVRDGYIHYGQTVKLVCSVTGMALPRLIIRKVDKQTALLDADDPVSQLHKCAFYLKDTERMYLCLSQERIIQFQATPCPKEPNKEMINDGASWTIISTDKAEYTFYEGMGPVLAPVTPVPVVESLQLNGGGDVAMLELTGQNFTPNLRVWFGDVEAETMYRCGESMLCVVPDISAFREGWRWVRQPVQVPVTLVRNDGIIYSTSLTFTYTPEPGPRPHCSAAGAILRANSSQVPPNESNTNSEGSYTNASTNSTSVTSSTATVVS

How did the “Notch-dependence of N3ICD-GFP-mediated transcriptional changes” value [1] turn out when `CC(C)(C)c1ccc(Oc2ccc(N)cn2)cc1` [CB-103] was run?
The value was “confirmed that N3ICD-GFP-mediated transcriptional changes occurred via a canonical Notch transactivation mechanism”.

`[Cl-].[K+]` [KCl, potassium chloride] was tested. Which “Calcium response of cells to KCl application” value [2] did it give?
Its value is “led to depolarization and calcium influx”.

And the “average reduction in area of cells” value [3]?
The value was “approximately 7%”.

With `CC(N/C(=N\C#N)Nc1ccncc1)C(C)(C)C` (centres unmarked) [pinacidil] as the compound, how does the “intracellular calcium after KCl-induced depolarization versus DMSO-treated cells” value ([4]; GFP-transduced cultures) read?
Its value is “such a difference was not observed”.

And the “intracellular calcium after KCl-induced depolarization versus DMSO-treated cells” value ([4]; N3ICD-GFP-transduced cultures)?
Its value is “reduced intracellular calcium”.
